These results are taken from patent publication US8222242B2, “Nitric oxide releasing compounds” (The Regents of the University of California, priority 2008, dated 2012).

Series [1] deals with vasodilator-stimulated phosphoprotein (VASP) phosphorylated on Ser239 in CS-54 rat vascular smooth muscle cells. Briefly: VASP phosphorylation in CS-54 cells (immunoblot). It is filed as cell-based. As to conditions: added to CS-54 cells; 30 μM cobinamide shown. On the technique in general: A western blot detects proteins with antibodies after separation by electrophoresis.
Experimental: CS-54 rat vascular smooth muscle cells were treated with the indicated concentrations of NO-Cbi for 1 hour (A), or 10 μM NO-Cbi for the indicated times (B and C). […] In A and B, “Con” refers to control, which was cells treated with water. As indicated, the effects of 30 μM cobinamide (Cbi) and 100 μM 8-CPT-cGMP (cGMP) are shown for comparison. In A and B, similar results were obtained in two other experiments.
Briefly, cells treated with an NO-releasing agent were extracted rapidly in a sodium dodecyl sulfate (SDS) containing sample buffer, and the cell extracts were subjected to SDS-polyacrylamide gel electrophoresis. Phospho-VASP was assessed by immunoblotting using an antibody specific for VASP phosphorylated on Ser259 (Smolenski A et al. (1998) J. Biol. Chem. 273:20029-35).
To determine if NO released from NO-Cbi can have a physiologic effect in cultured cells, vasodilator-stimulated phosphoprotein (VASP) phosphorylation was assessed in CS-54 cells.
For series [2], the system named is Malpighian tubules isolated from D. melanogaster. Briefly: Malpighian tubule fluid secretion. Conditions: 1 mM cobinamide or Cbi(II), 5 mM ascorbic acid, half-strength Schneider's medium. Also on record: species or system Drosophila melanogaster. On the procedure:
Malpighian tubules are the osmoregulatory organs of D. melanogaster, corresponding to vertebrate kidneys. Tubular fluid secretion is stimulated by NO and cGMP, and fluid secretion rates were measured as described previously (Broderick K E et al. (2005) J. Biol. Chem. 280:8678-85). Briefly, the Malpighian tubule pair of a fly was resected and suspended in mineral oil. […]
Malpighian tubules are an excellent model for studying the effects of a drug on an intact organ system (Broderick K E et al. (2003) Am. J. Physiol. Cell Physiol. 285:C1207-18). […] Deta-NONOate may not be affected as much by cysteine in the medium, because it has a slower NO release rate and the intact drug can be transported intracellularly before much NO is released.

The subject of the next series is mice. It is filed as in vivo, mouse. Conditions: for effect on blood pressure (controls) / effect on heart rate (controls): intraperitoneally, 8 mM Cbi(II) shown. On the procedure:
Mice were anesthetized with 1.5% isoflurane gas, and after achieving a stable blood pressure and pulse (about 10 minutes), they were injected intraperitoneally with 100 μl of […] 8 mM Cbi(II) (open circles, solid line), 8 mM NO-Cbi (filled circles, dashed line), or 8 mM nitroglycerin (squares, dotted lines) (panels a and b). Control refers to anesthetized mice who received 100 μl water (triangles, solid line). In panel C, 100 μl of 6 mM NO-Cbi was injected at 0, 32, and 64 minutes as indicated by the arrows. Systolic and diastolic blood pressures, and pulse rate, were measured at the indicated times on the tail artery using a non-invasive tail cuff. The percent change in mean arterial pressure (A and C), and pulse rate (B and C) are shown. For panels A and B, data are the mean±SD of results from five mice for NO-Cbi studied on separate days, and four mice for the other conditions. […] Data in panel C are the mean±SD of results from three mice studied on different days.
Pulse, and systolic and diastolic blood pressures, were measured non-invasively in the tail artery of mice by restraining mice on a warming platform maintained at ˜38° C. The base of the tail was placed in a computer-controlled pneumatic cuff, and the distal tail was placed in a sensor assembly consisting of a light emitting diode and a photodiode detector. Baseline measurements were made with the mice awake in a dark chamber. The mice were then anesthetized with 3% isoflurane in an induction chamber, and returned to the platform where they received 1.5% isoflurane with 2 liter per minute of oxygen via a nose cone; the isoflurane caused a small, but stable, drop in blood pressure. Drugs in a volume of 100 ul were injected intraperitoneally into the mice, and pulse and blood pressure were measured every 5-15 minute, taking five readings at each time point.
To determine the effect of NO release from NO-Cbi in an intact mammal, blood pressure and pulse of mice injected intraperitoneally with NO-Cbi were measured.

Series [3] has as its system CS-54 rat vascular smooth muscle cells. As to conditions: added to CS-54 cells.
Experimental: CS-54 rat vascular smooth muscle cells were treated with the indicated concentrations of NO-Cbi for 1 hour (A), or 10 μM NO-Cbi for the indicated times (B and C). […] (C) Cell extracts were clarified by centrifugation, and nitrite and nitrate in the extracts were measured by an enhanced Griess reagent method. In A and B, “Con” refers to control, which was cells treated with water. As indicated, the effects of 30 μM cobinamide (Cbi) and 100 μM 8-CPT-cGMP (cGMP) are shown for comparison. In A and B, similar results were obtained in two other experiments.
Nitrite and nitrate were measured in CS-54 cell extracts and fly extracts using a kit from Active Motif based on an enhanced Griess reagent, as described previously (Broderick K E et al. (2006) FASEB J. 20:1865-73).
The conditions of series [4]: cited from earlier work.
The next series relates to isolated mouse hearts. Put plainly: Coronary flow in isolated perfused mouse hearts (Langendorff). On the procedure:
Hearts and aortas were removed from NIH Swiss mice anesthetized with sodium nembutal, and coronary flow was measured in the hearts using a Langendorff preparation (FIG. 5a) and relaxation of aortic rings was measured after inducing constriction of the rings with prostaglandin F2α (FIG. 5b). The hearts and aortic rings were treated with a range of concentrations of NO-Cbi (filled circles), nitroglycerin (open circles, dotted line, FIG. 5a), and sodium nitroprusside (open circles, FIG. 5b). Coronary flow was measured on the same hearts for both NO-Cbi and nitroglycerin after an appropriate wash-out period between drugs, and aortic ring relaxation was measured on two rings from the same aorta for NO-Cbi and sodium nitroprusside. The data are the mean of two independent experiments performed on two separate hearts in each experiment (FIG. 5a), and the mean±SEM of two independent experiments performed on three separate aortic rings in each experiment (FIG. 5b).
Coronary flow was measured in isolated perfused mouse hearts in a Langendorff system, and was 10.8±0.5 ml/min/g wet weight (n=7 hearts) under basal conditions. […] The latter value is similar to maximal coronary flow of 24.6±1.8 ml/min/g wet weight obtained with 62 μM adenosine. For nitroglycerin to increase coronary flow to that of NO-Cbi, the nitroglycerin concentration had to be increased to 770 μM, or about 100-fold greater than the NO-Cbi concentration (FIG. 5a).

For the next series, the system named is D. melanogaster. Briefly: Viability of injected D. melanogaster. Conditions: 1 μl injected; 1 mM (ascorbic acid 5 mM); observed 48 h. How it is done:
(A) Tubular secretion rates of Malpighian tubules isolated from D. melanogaster were measured, using half-strength Schneider's medium. Basal tubular secretion was measured at 0, 10, and 20 minutes; at 20 minutes (depicted by the arrow) 1 mM cobinamide (Cbi, open circles), 1 mM NO-Cbi (filled circles), 0.5 mM Deta-NONOate (diamonds), or 100 μM 8-CPT-cGMP (inverted triangles) were added. Results are the mean±S.D. of three independent experiments performed on Malpighian tubule pairs from 10 flies. […] (B). Flies were injected with 1 μl of 1 mM cobinamide (Cbi, open circles), 1 mM NO-Cbi (filled circles), 0.5 mM Deta-NONOate (diamonds), or 1 mM spermine NONOate (squares). […] The data are plotted as a Kaplan-Meier survival curve, and are the mean±SD of three experiments, with 10 flies per condition per experiment. […] (C). Flies were injected with 1 μl of water (control, open bar), 1 mM cobinamide (Cbi, grey bar), or 1 mM NO-Cbi (black bars). Flies were killed and extracts were prepared at 3 hours for the water- and cobinamide-injected flies, and at the indicated times for the NO-Cbi-injected flies. Nitrite and nitrate in the extracts were measured using an enhanced Griess reagent.
The fluid volume of a fly is […], and thus, the injected agent was diluted about 10-fold. […]

A further series deals with rabbits. Briefly: Rabbits with phenylephrine-induced hypertension. It is filed as in vivo, rabbit. As to conditions: phenylephrine 5 to 20 μg/kg/min continuous intravenous infusion. How it is done:
Phenylephrine was given by continuous intravenous infusion to an anesthetized rabbit at increasing rates from 5 to 20 μg/kg/min; the rabbit remained on the highest phenylephrine infusion rate until the end of the experiment (darker arrows with “A”-shaped arrowheads indicate start times of each increasing dose). At 49 minutes, an infusion of NO-Cbi was started at a rate of 3 μg/kg/min (2.9 nmol/kg/min), with the infusion rate doubled at 58 minutes (lighter arrows with triangular-shaped arrowheads indicate start times of infusions). Systolic and diastolic blood pressure recordings from an intra-arterial catheter are shown. Changes in total hemoglobin, oxyhemoglobin, and deoxyhemoglobin concentrations were measured by continuous wave near-infrared spectroscopy over the left thigh muscle. Phenylephrine caused a progressive decrease in total hemoglobin and oxyhemoglobin concentrations, which reversed within seconds of starting the NO-Cbi infusion.
Decreased tissue oxygenation as occurred in the experiments shown in FIGS. 7 and 8 would clearly be an undesirable effect of treating hypertensive patients with NO-Cbi. However, lowering blood pressure of a hypertensive patient is very different from lowering blood pressure of a normotensive subject, and the experiments described in Example 15 rabbits with normal or low (due to anesthesia) blood pressure. To simulate a hypertensive state, the blood pressure of rabbits was raised using a continuous intravenous infusion of phenylephrine, a peripheral vasoconstrictor (FIG. 9). As the rabbit's blood pressure increased above normal, tissue perfusion and oxygenation decreased, as evidenced by a decrease in total hemoglobin and oxyhemoglobin concentrations in muscle.
Thus, in an animal with drug-induced hypertension, NO-Cbi improved tissue perfusion and oxygenation as it lowered blood pressure.

As for `C/C1=C2/[N-][C@H]([C@H](CC(N)=O)[C@@]2(C)CCC(=O)NC[C@@H](C)O)[C@]2(C)N=C(/C(C)=C3N=C(/C=C4N=C1[C@@H](CCC(N)=O)C\4(C)C)[C@@H](CCC(N)=O)[C@]\3(C)CC(N)=O)[C@@H](CCC(N)=O)[C@]2(C)CC(N)=O.[Co]` [Cbi(II), reference compound], the “effect on VASP phosphorylation (controls)” value in series [1] is recorded as “Neither cobinamide, Cbi(II), or ascorbate had any effect”. The “effect on tubular secretion (controls)” value in series [2] is given as “Neither cobinamide nor Cbi(II) significantly affected tubular secretion”. In addition, in the series with mice, the “effect on blood pressure (controls)” value is reported as “no significant effect” and the “effect on heart rate (controls)” value is “no significant effect”. Besides, in series [3], the “effect on nitrite/nitrate levels (controls)” value is on record as “Neither cobinamide, Cbi(II), or ascorbate had any effect”.
By half-life is commonly meant the time needed for the level to fall by half in the phase considered. With `NCCN(CCN)/[N+]([O-])=N/O` [Deta-NONOate], the half-life in series [4] was about 50 h.
In turn, `Nc1ncnc2c1ncn2[C@@H]1O[C@H](CO)[C@@H](O)[C@H]1O` [adenosine] returned a maximal coronary flow in the series with isolated mouse hearts (62 μM) of 24.6±1.8 ml/min/g wet weight.
For `O=C1O[C@H]([C@@H](O)CO)C(O)=C1O` [ascorbate, ascorbic acid, reference compound], the “effect on VASP phosphorylation (controls)” value in series [1] is given as “Neither cobinamide, Cbi(II), or ascorbate had any effect”. In the series with mice, the “effect on blood pressure (controls)” value is listed as “no significant effect” and the “effect on heart rate (controls)” value is “no significant effect”. Moreover, the “effect on nitrite/nitrate levels (controls)” value in series [3] was “Neither cobinamide, Cbi(II), or ascorbate had any effect”.
On to `C/C1=C2/[N-][C@H]([C@H](CC(N)=O)[C@@]2(C)CCC(=O)NC[C@@H](C)O)[C@]2(C)N=C(/C(C)=C3N=C(/C=C4N=C1[C@@H](CCC(N)=O)C\4(C)C)[C@@H](CCC(N)=O)[C@]\3(C)CC(N)=O)[C@@H](CCC(N)=O)[C@]2(C)CC(N)=O.[Co+3]` [cobinamide, reference compound], for which the “effect on VASP phosphorylation (controls)” value in series [1] is on record as “Neither cobinamide, Cbi(II), or ascorbate had any effect”. Also, in series [2], the “effect on tubular secretion (controls)” value is “Neither cobinamide nor Cbi(II) significantly affected tubular secretion”. In addition, in the series on D. melanogaster, the “fly killing / toxicity to flies” value is on record as “not toxic to flies”. Moreover, in the series with mice, the “effect on blood pressure (controls)” value is recorded as “no significant effect” and the “effect on heart rate (controls)” value was “no significant effect”. In series [3], the “effect on nitrite/nitrate levels (controls)” value is “Neither cobinamide, Cbi(II), or ascorbate had any effect”.
`O=[N+]([O-])OCC(CO[N+](=O)[O-])O[N+](=O)[O-]` [nitroglycerin]: the “systolic and diastolic blood pressure” value in the series with mice (0.8 μmol (100 μl of 8 mM) intraperitoneally, anesthetized mice) is “late decrease in blood pressure”. Further, in the series with isolated mouse hearts, the “concentration relative to the NO-Cbi concentration for equal coronary flow” value is “about 100 fold”. Moreover, in the series with isolated mouse hearts (12.0 μM infused), the coronary flow came to 15.3±1.0 ml/min/g wet weight and the “increase of coronary flow” value is given as 34%. Further, in the series with isolated mouse hearts (versus 7 μM NO-Cbi), the “concentration needed to increase coronary flow to that of NO-Cbi” value turned out to be 770 µM.
Regarding `CNC[C@H](O)c1cccc(O)c1` [phenylephrine, reference compound], in the series with rabbits, the “systolic and diastolic blood pressure” value was “increased the systolic and diastolic blood pressure”; the “total hemoglobin and oxyhemoglobin in muscle” value was “decreased total hemoglobin and oxyhemoglobin in the muscle”.
